# Laboratory results reported in US7807781B2, “Inhibitors of serine protease activity and their use in methods and compositions for treatment of viral infections” (The Regents of the University of Colorado, priority 1999, dated 2010).
# Like-named read-outs stand apart in the source and are kept apart here.
# Test system: lymphocyte-tropic HIV-1 strain A018A in PBMC
# Type: cell-based
substance,measurement,setting,value
AAT: Alpha-1-antitrypsin purified from the blood of healthy volunteers to single-band homogeneity,effect on p24 antigen production of AAT present during infection only,"AAT removed, 4 days of culture in medium alone",did not affect
same,p24 produced,"PBMC infected in absence of AAT, 4 days with AAT 0.1 mg/ml","8,687±1,304 pg/ml"
same,p24 produced,"PBMC infected in absence of AAT, 4 days with AAT 0.5 mg/ml","7,392±1,299 pg/ml"
same,p24 produced,"PBMC infected in absence of AAT, 4 days with AAT 1.0 mg/ml","6,613 pg/ml"
same,p24 produced,"PBMC infected in absence of AAT, 4 days with AAT 2.0 mg/ml","6,258±1,772 pg/ml"
same,p24 produced,"PBMC infected in absence of AAT, 4 days with AAT 3.0 mg/ml","5,275±316 pg/ml"
same,p24 produced,"PBMC infected in absence of AAT, 4 days with AAT 4.0 mg/ml","4,725±101 pg/ml"
same,p24 produced,"PBMC infected in absence of AAT, 4 days with AAT 5.0 mg/ml","3,508 pg/ml"
same,reduction in p24 antigen compared to control cultures,"PBMC infected in absence of AAT, AAT 4.0 mg/ml",22%
same,reduction in p24 antigen compared to control cultures,"PBMC infected in absence of AAT, AAT 5.0 mg/ml",46%
same,p24 produced,"PBMC infected in presence of 3 mg/ml AAT, 4 days with AAT 0.1 mg/ml","6,620±2,026 pg/ml"
same,p24 produced,"PBMC infected in presence of 3 mg/ml AAT, 4 days with AAT 0.5 mg/ml","6,047±1,322 pg/ml"
same,p24 produced,"PBMC infected in presence of 3 mg/ml AAT, 4 days with AAT 1.0 mg/ml","6,014±2,055 pg/ml"
same,p24 produced,"PBMC infected in presence of 3 mg/ml AAT, 4 days with AAT 2.0 mg/ml","2,516±345 pg/ml"
same,p24 produced,"PBMC infected in presence of 3 mg/ml AAT, 4 days with AAT 3.0 mg/ml","3,360±371 pg/ml"
same,p24 produced,"PBMC infected in presence of 3 mg/ml AAT, 4 days with AAT 4.0 mg/ml","2,743±316 pg/ml"
same,p24 produced,"PBMC infected in presence of 3 mg/ml AAT, 4 days with AAT 5.0 mg/ml","2,713±645 pg/ml"
same,reduction in p24 production compared to control cultures,"PBMC infected in presence of 3 mg/ml AAT, AAT 2.0 mg/ml",71%
same,reduction in p24 production compared to control cultures,"PBMC infected in presence of 3 mg/ml AAT, AAT 3.0 mg/ml",61%
same,reduction in p24 production compared to control cultures,"PBMC infected in presence of 3 mg/ml AAT, AAT 4.0 mg/ml",65%
same,reduction in p24 production compared to control cultures,"PBMC infected in presence of 3 mg/ml AAT, AAT 5.0 mg/ml",67%
same,Maximal p24 reduction in PBMC exposed to AAT for 4 days,cells infected in the absence of AAT,46%
same,Maximal p24 reduction in PBMC exposed to AAT for 4 days,cells infected in the presence of AAT,71%
